Source: patent publication US11873309B2, “Heterocyclic compounds as immunomodulators” (Incyte Corporation, priority 2016, dated 2024)

Molecular target: T1, PD-1/PD-L1 protein/protein interaction (recombinant human PD-L1 protein (19-238), recombinant human PD-1 protein (25-167)) (Homo sapiens, UniProt Q9NZQ7)
T1 construct: Recombinant human PD-L1 protein (19-238) with a His-tag at the C-terminus; purchased AcroBiosystems PD1-H5229 (PD-L1); PD1-H5257 (PD-1)
Assay: PD-1/PD-L1 Homogeneous Time-Resolved Fluorescence (HTRF) Binding Assay
Conditions: 25° C., PBS buffer pH 7.4, 40 minutes preincubation with inhibitors
Description: Example A. PD-1/PD-L1 Homogeneous Time-Resolved Fluorescence (HTRF) Binding Assay
The assays were conducted in a standard black 384-well polystyrene plate with a final volume of 20 μL. Inhibitors were first serially diluted in DMSO and then added to the plate wells before the addition of other reaction components. The final concentration of DMSO in the assay was 1%. The assays were carried out at 25° C. in the PBS buffer (pH 7.4) with 0.05% Tween-20 and 0.1% BSA. Recombinant human PD-L1 protein (19-238) with a His-tag at the C-terminus was purchased from AcroBiosystems (PD1-H5229). Recombinant human PD-1 protein (25-167) with Fc tag at the C-terminus was also purchased from AcroBiosystems (PD1-H5257). PD-L1 and PD-1 proteins were diluted in the assay buffer and 10 μL was added to the plate well. Plates were centrifuged and proteins were preincubated with inhibitors for 40 minutes. The incubation was followed by the addition of 10 μL of HTRF detection buffer supplemented with Europium cryptate-labeled anti-human IgG (PerkinElmer-AD0212) specific for Fc and anti-His antibody conjugated to SureLight®-Allophycocyanin (APC, PerkinElmer-AD0059H). After centrifugation, the plate was incubated at 25° C. for 60 min. before reading on a PHERAstar FS plate reader (665 nm/620 nm ratio). Final concentrations in the assay were […], 10 nM PD-L1, 1 nM europium anti-human IgG and 20 nM anti-His-Allophycocyanin. IC50 determination was performed by fitting the curve of percent control activity versus the log of the inhibitor concentration using the GraphPad Prism 5.0 software.

T1 sequence (Q9NZQ7 19-238): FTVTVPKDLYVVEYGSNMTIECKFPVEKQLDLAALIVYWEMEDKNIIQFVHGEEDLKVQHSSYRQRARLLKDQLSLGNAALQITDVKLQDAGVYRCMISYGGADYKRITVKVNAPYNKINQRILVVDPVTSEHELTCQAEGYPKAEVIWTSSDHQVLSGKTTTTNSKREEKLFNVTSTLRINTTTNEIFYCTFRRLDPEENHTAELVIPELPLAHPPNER

| Compound | IC50 |
| --- | --- |
| N#Cc1c(NC(=O)c2nc3c(s2)CNCC3)cccc1-c1ccc2c(c1)OCCO2 [Example 1, N-[2-cyano-3-(2,3-dihydro-1,4-benzodioxin-6-yl)phenyl]-4,5,6,7-tetrahydro[1,3]thiazolo[5,4-c]pyridine-2-carboxamide] | ≤ 100 nM |
| N#Cc1c(NC(=O)c2nc3c(s2)CNCC3)cccc1-c1ccccc1 [Example 2, N-(2-cyanobiphenyl-3-yl)-4,5,6,7-tetrahydro[1,3]thiazolo[5,4-c]pyridine-2-carboxamide] | ≤ 100 nM |
| Cn1ncc2c(-c3cccc(NC(=O)c4nc5c(s4)CNCC5)c3C#N)cccc21 [Example 3, N-[2-cyano-3-(1-methyl-1H-indazol-4-yl)phenyl]-4,5,6,7-tetrahydro[1,3]thiazolo[5,4-c]pyridine-2-carboxamide] | ≤ 100 nM |
| N#Cc1c(NC(=O)c2nc3c(s2)CNCC3)cccc1-c1ccccc1F [Example 4, N-(2-cyano-2′-fluorobiphenyl-3-yl)-4,5,6,7-tetrahydro[1,3]thiazolo[5,4-c]pyridine-2-carboxamide] | ≤ 100 nM |
| COc1cccc(-c2cccc(NC(=O)c3nc4c(s3)CNCC4)c2C#N)c1F [Example 5, N-(2-cyano-2′-fluoro-3′-methoxybiphenyl-3-yl)-4,5,6,7-tetrahydro[1,3]thiazolo[5,4-c]pyridine-2-carboxamide] | ≤ 100 nM |
| N#Cc1c(NC(=O)c2nc3c(s2)CNCC3)cccc1-c1ccc2c(c1)OCC2 [Example 6, N-[2-cyano-3-(2,3-dihydro-1-benzofuran-6-yl)phenyl]-4,5,6,7-tetrahydro[1,3]thiazolo[5,4-c]pyridine-2-carboxamide] | ≤ 100 nM |
| N#Cc1c(NC(=O)c2nc3c(s2)CNCC3)cccc1C1=CCCCC1 [Example 7, N-(2-cyano-3-cyclohex-1-en-1-ylphenyl)-4,5,6,7-tetrahydro[1,3]thiazolo[5,4-c]pyridine-2-carboxamide] | ≤ 100 nM |
| N#Cc1c(NC(=O)c2nc3c(s2)CNCC3)cccc1C1CCCCC1 [Example 8, N-(2-cyano-3-cyclohexylphenyl)-4,5,6,7-tetrahydro[1,3]thiazolo[5,4-c]pyridine-2-carboxamide] | 100 to 500 nM |
| N#Cc1c(NC(=O)c2nc3c(s2)CNCC3)cccc1-c1c(F)cccc1F [Example 9, N-(2-cyano-2′,6′-difluorobiphenyl-3-yl)-4,5,6,7-tetrahydro[1,3]thiazolo[5,4-c]pyridine-2-carboxamide] | ≤ 100 nM |
| N#Cc1c(NC(=O)c2cc3n(n2)CCNC3)cccc1-c1ccc2c(c1)OCCO2 [Example 10, N-[2-cyano-3-(2,3-dihydro-1,4-benzodioxin-6-yl)phenyl]-4,5,6,7-tetrahydropyrazolo[1,5-a]pyrazine-2-carboxamide] | 100 to 500 nM |
| N#Cc1c(NC(=O)c2cc3n(n2)CCN(CCO)C3)cccc1-c1ccc2c(c1)OCCO2 [Example 11, N-[2-cyano-3-(2,3-dihydro-1,4-benzodioxin-6-yl)phenyl]-5-(2-hydroxyethyl)-4,5,6,7-tetrahydropyrazolo[1,5-a]pyrazine-2-carboxamide] | 100 to 500 nM |
| Cn1c(C(=O)Nc2cccc(-c3ccc4c(c3)OCCO4)c2C#N)nc2c1CCNC2 [Example 12, N-[2-cyano-3-(2,3-dihydro-1,4-benzodioxin-6-yl)phenyl]-1-methyl-4,5,6,7-tetrahydro-1H-imidazo[4,5-c]pyridine-2-carboxamide] | ≤ 100 nM |
| Cn1c(C(=O)Nc2cccc(-c3ccc4c(c3)OCCO4)c2C#N)nc2c1CCN(CCO)C2 [Example 13, N-(2-cyano-3-(2,3-dihydrobenzo[b][1,4]dioxin-6-yl)phenyl)-5-(2-hydroxyethyl)-1-methyl-4,5,6,7-tetrahydro-1H-imidazo[4,5-c]pyridine-2-carboxamide] | ≤ 100 nM |
| N#Cc1c(NC(=O)c2nc3n(n2)CCNC3)cccc1-c1ccc2c(c1)OCCO2 [Example 14, N-[2-cyano-3-(2,3-dihydro-1,4-benzodioxin-6-yl)phenyl]-5,6,7,8-tetrahydro[1,2,4]triazolo[1,5-a]pyrazine-2-carboxamide] | 500 to 10000 nM |
| N#Cc1cccc(-c2cccc(NC(=O)c3nc4c(s3)CNCC4)c2C#N)c1F [Example 15, N-(2,3′-dicyano-2′-fluorobiphenyl-3-yl)-4,5,6,7-tetrahydro[1,3]thiazolo[5,4-c]pyridine-2-carboxamide] | 100 to 500 nM |
| COc1cccc(-c2cccc(NC(=O)c3nc4c(s3)CNCC4)c2C#N)c1 [Example 16, N-(2-cyano-3′-methoxybiphenyl-3-yl)-4,5,6,7-tetrahydrothiazolo[5,4-c]pyridine-2-carboxamide] | ≤ 100 nM |

| Compound | IC50 |
| --- | --- |
| COc1cc(F)cc(-c2cccc(NC(=O)c3nc4c(s3)CNCC4)c2C#N)c1 [Example 17, N-(2-cyano-3′-fluoro-5′-methoxybiphenyl-3-yl)-4,5,6,7-tetrahydro[1,3]thiazolo[5,4-c]pyridine-2-carboxamide] | ≤ 100 nM |
| N#Cc1c(NC(=O)c2nc3c(s2)CNCC3)cccc1-c1ccccc1Cl [Example 18, N-(2′-chloro-2-cyanobiphenyl-3-yl)-4,5,6,7-tetrahydro[1,3]thiazolo[5,4-c]pyridine-2-carboxamide] | ≤ 100 nM |
| COc1cccc(-c2cccc(NC(=O)c3cn4c(n3)CNCC4)c2C#N)c1F [Example 19, N-(2-cyano-2′-fluoro-3′-methoxybiphenyl-3-yl)-5,6,7,8-tetrahydroimidazo[1,2-a]pyrazine-2-carboxamide] | ≤ 100 nM |
| Cc1c(NC(=O)c2nc3c(s2)CNCC3)cccc1-c1ccc2c(c1)OCCO2 [Example 20, N-[3-(2,3-dihydro-1,4-benzodioxin-6-yl)-2-methylphenyl]-4,5,6,7-tetrahydro[1,3]thiazolo[5,4-c]pyridine-2-carboxamide] | ≤ 100 nM |
| COc1cccc(-c2cccc(NC(=O)c3nc4c(s3)CNCC4)c2C)c1F [Example 21, N-(2′-fluoro-3′-methoxy-2-methylbiphenyl-3-yl)-4,5,6,7-tetrahydro[1,3]thiazolo[5,4-c]pyridine-2-carboxamide] | ≤ 100 nM |
| COc1cccc(-c2cccc(NC(=O)c3nc4c(n3C)CCNC4)c2C)c1F [Example 22, N-(2′-fluoro-3′-methoxy-2-methylbiphenyl-3-yl)-1-methyl-4,5,6,7-tetrahydro-1H-imidazo[4,5-c]pyridine-2-carboxamide] | ≤ 100 nM |
| Cc1c(NC(=O)c2nc3c(s2)CNCC3)cccc1-c1cccc2c1cnn2C [Example 23, N-[2-methyl-3-(1-methyl-1H-indazol-4-yl)phenyl]-4,5,6,7-tetrahydro[1,3]thiazolo[5,4-c]pyridine-2-carboxamide] | ≤ 100 nM |
| Cc1c(NC(=O)c2nc3c(s2)CNCC3)cccc1-c1cccc(CO)c1F [Example 24, N-[2′-fluoro-3′-(hydroxymethyl)-2-methylbiphenyl-3-yl]-4,5,6,7-tetrahydro[1,3]thiazolo[5,4-c]pyridine-2-carboxamide] | 500 to 10000 nM |
| Cc1c(NC(=O)c2nc3c(s2)CNCC3)cccc1-c1cccc2[nH]ncc12 [Example 25, N-[3-(1H-indazol-4-yl)-2-methylphenyl]-4,5,6,7-tetrahydro[1,3]thiazolo[5,4-c]pyridine-2-carboxamide] | ≤ 100 nM |
| Cc1c(NC(=O)c2nc3c(s2)CNCC3)cccc1-c1ccccc1 [Example 26, N-(2-methylbiphenyl-3-yl)-4,5,6,7-tetrahydro[1,3]thiazolo[5,4-c]pyridine-2-carboxamide] | ≤ 100 nM |
| Cc1c(NC(=O)c2nc3c(s2)CN(CCO)CC3)cccc1-c1ccccc1 [Example 27, 5-(2-hydroxyethyl)-N-(2-methylbiphenyl-3-yl)-4,5,6,7-tetrahydrothiazolo[5,4-c]pyridine-2-carboxamide] | ≤ 100 nM |
| Cc1c(NC(=O)c2nc3c(s2)CN(CC(=O)O)CC3)cccc1-c1ccccc1 [Example 28, 2-(2-(2-methylbiphenyl-3-ylcarbamoyl)-6,7-dihydrothiazolo[5,4-c]pyridin-5(4H)-yl)acetic acid] | ≤ 100 nM |
| Cc1c(NC(=O)c2nc3c(s2)CNCC3)cccc1-c1ccc2cn(C)nc2c1 [Example 29, N-[2-methyl-3-(2-methyl-2H-indazol-6-yl)phenyl]-4,5,6,7-tetrahydro[1,3]thiazolo[5,4-c]pyridine-2-carboxamide] | 100 to 500 nM |
| Cc1c(NC(=O)c2nc3c(s2)CNCC3)cccc1-c1ccccc1C#N [Example 30, N-(2′-cyano-2-methylbiphenyl-3-yl)-4,5,6,7-tetrahydro[1,3]thiazolo[5,4-c]pyridine-2-carboxamide] | 100 to 500 nM |
| Cc1c(NC(=O)c2nc3c(s2)CNCC3)cccc1-c1ccccc1CC#N [Example 31, N-[2′-(cyanomethyl)-2-methylbiphenyl-3-yl]-4,5,6,7-tetrahydro[1,3]thiazolo[5,4-c]pyridine-2-carboxamide] | 500 to 10000 nM |
| COc1cccc(-c2cccc(NC(=O)c3nc4c(s3)CNCC4)c2Cl)c1F [Example 32, N-(2-chloro-2′-fluoro-3′-methoxybiphenyl-3-yl)-4,5,6,7-tetrahydro[1,3]thiazolo[5,4-c]pyridine-2-carboxamide] | ≤ 100 nM |
